Where “and” joins values, the source holds several entries; their conditions need not be identical. Equal values may be shown once. Inconclusive results and toxic doses are left out.
Test system: P388 leukemia ip, CD2F1 mice, survival T/C
Test: NCI In Vivo Anticancer Drug Screen. Data for tumor model P388 Leukemia (intraperitoneal) in CD2F1 (CDF1) mice
Settings: endpoint: median survival time, higher = longer survival
Outline: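 Mice carrying the transplanted tumor received test compound or vehicle. Survival was recorded in each group, and the value is the treated-group measurement divided by that of the vehicle-treated control group.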

[1] = dose: 50.0 mg/kg/injection, schedule: Q01DX005 (ip), vehicle: saline with Tween-80
[2] = dose: 60.0 mg/kg/injection, schedule: Q01DX005 (ip), vehicle: saline with Tween-80
[3] = dose: 120.0 mg/kg/injection, schedule: Q01DX005 (ip), vehicle: saline with Tween-80
[4] = dose: 240.0 mg/kg/injection, schedule: Q01DX005 (ip), vehicle: saline with Tween-80
[5] = dose: 50.0 mg/kg/injection, schedule: Q01DX005 (ip), vehicle: Klucel (hydroxypropylcellulose) (HPC)
[6] = dose: 100.0 mg/kg/injection, schedule: Q01DX005 (ip), vehicle: Klucel (hydroxypropylcellulose) (HPC)

Compound: Nc1nc(=S)c2[nH]cnc2[nH]1
- T/C (dose: 0.25 mg/kg/injection, schedule: Q01DX009 (ip), vehicle: acid diluted with saline): 114 % of control
- T/C (dose: 0.25 mg/kg/injection, schedule: Q01DX009 (ip), vehicle: alkali diluted with saline): 120 % of control
- T/C (dose: 0.38 mg/kg/injection, schedule: Q01DX005 (ip), vehicle: alkali diluted with saline): 108 % of control
- T/C (dose: 0.5 mg/kg/injection, schedule: Q01DX009 (ip), vehicle: acid diluted with saline): 106 % of control
- T/C (dose: 0.5 mg/kg/injection, schedule: Q01DX009 (ip), vehicle: alkali diluted with saline): 119 % of control
- T/C (dose: 0.75 mg/kg/injection, schedule: Q01DX005 (ip), vehicle: alkali diluted with saline): 115 % of control
- T/C (dose: 1.0 mg/kg/injection, schedule: Q01DX009 (ip), vehicle: acid diluted with saline): 112 % of control
- T/C (dose: 1.12 mg/kg/injection, schedule: Q04DX003 (ip), vehicle: acid diluted with saline): 109 % of control
- T/C (dose: 1.44 mg/kg/injection, schedule: Q01DX009 (ip), vehicle: acid diluted with saline): 155 % of control
- T/C (dose: 1.5 mg/kg/injection, schedule: Q01DX005 (ip), vehicle: alkali diluted with saline): 123 % of control
- T/C (dose: 1.5 mg/kg/injection, schedule: Q01DX009 (ip), vehicle: acid diluted with saline): 154 % of control
- T/C (dose: 1.5 mg/kg/injection, schedule: Q01DX009 (ip), vehicle: alkali diluted with saline): 151 % of control
- T/C (dose: 2.0 mg/kg/injection, schedule: Q01DX005 (ip), vehicle: alkali diluted with saline): 157 % of control
- T/C (dose: 2.0 mg/kg/injection, schedule: Q01DX009 (ip), vehicle: acid diluted with saline): 106 % of control
- T/C (dose: 2.0 mg/kg/injection, schedule: Q04DX003 (ip), vehicle: alkali diluted with saline): 119 % of control
- T/C (dose: 2.25 mg/kg/injection, schedule: Q04DX003 (ip), vehicle: acid diluted with saline): 119 % of control
- T/C (dose: 2.4 mg/kg/injection, schedule: Q01DX009 (ip), vehicle: acid diluted with saline): 154 % of control and 170 % of control
- T/C (dose: 2.5 mg/kg/injection, schedule: Q04DX003 (ip), vehicle: alkali diluted with saline): 116 % of control
- T/C (dose: 3.24 mg/kg/injection, schedule: Q04DX003 (ip), vehicle: acid diluted with saline): 117 % of control
- T/C (dose: 4.5 mg/kg/injection, schedule: Q01DX009 (ip), vehicle: saline): 122 % of control
- T/C (dose: 4.5 mg/kg/injection, schedule: Q04DX003 (ip), vehicle: acid diluted with saline): 119 % of control
- T/C (dose: 5.0 mg/kg/injection, schedule: Q04DX003 (ip), vehicle: alkali diluted with saline): 108 % of control
- T/C (dose: 6.0 mg/kg/injection, schedule: Q01DX005 (ip), vehicle: alkali diluted with saline): 116 % of control
- T/C (dose: 6.0 mg/kg/injection, schedule: Q01DX009 (ip), vehicle: acid diluted with saline): 105 % of control
- T/C (dose: 12.0 mg/kg/injection, schedule: Q01DX005 (ip), vehicle: alkali diluted with saline): 113 % of control
- T/C (dose: 20.0 mg/kg/injection, schedule: Q04DX003 (ip), vehicle: alkali diluted with saline): 120 % of control

Compound: CN=C(N)N/N=C(\C)c1ccc(/C(C)=N/NC(N)=NC)cc1
- T/C (dose: 25.0 mg/kg/injection, schedule: Q04DX002 (ip), vehicle: saline with Tween-80): 112 % of control

Compound: CCN(CC)c1ncnc2c1ncn2Cc1ccc(C(=O)OC)cc1
- T/C [1]: 100 % of control
- T/C (dose: 100.0 mg/kg/injection, schedule: Q01DX005 (ip), vehicle: saline with Tween-80): 100 % of control
- T/C (dose: 200.0 mg/kg/injection, schedule: Q01DX005 (ip), vehicle: saline with Tween-80): 94 % of control

Compound: CN(C)CCNc1ccc(CO)c2sc3ccccc3c(=O)c12
- T/C (dose: 25.0 mg/kg/injection, schedule: Q01DX005 (ip), vehicle: saline with Tween-80): 93 % of control and 94 % of control
- T/C [1]: 101 % of control and 114 % of control

Compound: O=C1CSC(c2ccc(F)c(F)c2)N1c1nncs1 (centres undefined)
- T/C [2]: 99 % of control
- T/C [3]: 101 % of control
- T/C [4]: 101 % of control

Compound: CC(=O)Nc1cc(Cl)cc2c1-c1ccc(Cl)cc1C2=O
- T/C [5]: 88 % of control
- T/C [6]: 94 % of control

Compound: Nc1nc2c(C(=O)NCc3cccs3)nnn2c2cccc(Cl)c12
- T/C [2]: 96 % of control
- T/C [3]: 92 % of control
- T/C [4]: 95 % of control

Compound: O=C(O)/C=C/c1c2ccc(=O)c(O)c-2oc2c(O)c(O)ccc12
- T/C [2]: 93 % of control
- T/C [3]: 93 % of control
- T/C [4]: 92 % of control

Compound: S=C(Nc1ccc(Br)cc1)SCc1ccco1
- T/C (dose: 12.5 mg/kg/injection, schedule: Q01DX009 (ip), vehicle: saline): 106 % of control
- T/C (dose: 25.0 mg/kg/injection, schedule: Q01DX009 (ip), vehicle: saline): 106 % of control
- T/C (dose: 50.0 mg/kg/injection, schedule: Q01DX009 (ip), vehicle: saline): 100 % of control
- T/C (dose: 50.0 mg/kg/injection, schedule: Q01DX009 (ip), vehicle: suspension in saline): 104 % of control
- T/C (dose: 100.0 mg/kg/injection, schedule: Q01DX009 (ip), vehicle: suspension in saline): 93 % of control
- T/C (dose: 200.0 mg/kg/injection, schedule: Q01DX009 (ip), vehicle: suspension in saline): 111 % of control

Compound: CCOC(=N)N1[C@H](C)[C@@H]1C
- T/C (dose: 12.5 mg/kg/injection, schedule: Q01DX005 (ip), vehicle: Klucel (hydroxypropylcellulose) (HPC)): 109 % of control
- T/C (dose: 25.0 mg/kg/injection, schedule: Q01DX005 (ip), vehicle: Klucel (hydroxypropylcellulose) (HPC)): 124 % of control
- T/C (dose: 50.0 mg/kg/injection, schedule: Q01DX005 (ip), vehicle: saline): 86 % of control

Compound: CCOC1=NC2(c3ccccc3)c3ccccc3SC12C (centres undefined)
- T/C [5]: 98 % of control
- T/C [6]: 100 % of control
- T/C (dose: 200.0 mg/kg/injection, schedule: Q01DX005 (ip), vehicle: Klucel (hydroxypropylcellulose) (HPC)): 93 % of control

Compound: CC(=O)[C@@H]1C[C@H]1C(=O)c1ccccc1
- T/C (dose: 67.5 mg/kg/injection, schedule: Q04DX002 (ip), vehicle: Klucel (hydroxypropylcellulose) (HPC)): 96 % of control
- T/C (dose: 135.0 mg/kg/injection, schedule: Q04DX002 (ip), vehicle: Klucel (hydroxypropylcellulose) (HPC)): 94 % of control
- T/C (dose: 270.0 mg/kg/injection, schedule: Q04DX002 (ip), vehicle: Klucel (hydroxypropylcellulose) (HPC)): 96 % of control

Compound: NC(CSC(c1ccccc1)(c1ccccc1)c1ccc(CO)cc1)C(=O)O (centres undefined)
- T/C (dose: 12.5 mg/kg/injection, schedule: Q01DX009 (ip), vehicle: saline with Tween-80): 118 % of control

Compound: O=C(Nc1ccc(F)cc1F)Oc1cccc2cccnc12
- T/C (dose: 50.0 mg/kg/injection, schedule: Q01DX009 (ip), vehicle: Klucel (hydroxypropylcellulose) (HPC)): 114 % of control
- T/C (dose: 100.0 mg/kg/injection, schedule: Q01DX009 (ip), vehicle: Klucel (hydroxypropylcellulose) (HPC)): 112 % of control

Compound: COc1cc(/C=C2\C(=O)C=C(C)CC2(C)C)ccc1O
- T/C (dose: 50.0 mg/kg/injection, schedule: Q04DX003 (ip), vehicle: saline with Tween-80): 95 % of control
- T/C (dose: 100.0 mg/kg/injection, schedule: Q04DX003 (ip), vehicle: saline with Tween-80): 90 % of control

Compound: C=C(C)C(=O)N(C)C(C)C(=O)OC1CC(=O)N(C)c2cc(cc(OC)c2Cl)C(OC)C(C)=C/C=C/C(OC)C2(O)CC(OC(=O)N2)C(C)C2OC12C (centres undefined)
- T/C (dose: 8.0 micrograms/kg/injection, schedule: Q01DX009 (ip), vehicle: saline): 172 % of control

Compound: C1=CC(=NN=P(c2ccccc2)(c2ccccc2)c2ccccc2)C=C1
- T/C (dose: 50.0 mg/kg/injection, schedule: Q01DX009 (ip), vehicle: saline with Tween-80): 89 % of control
- T/C (dose: 100.0 mg/kg/injection, schedule: Q01DX009 (ip), vehicle: saline with Tween-80): 102 % of control
- T/C (dose: 200.0 mg/kg/injection, schedule: Q01DX009 (ip), vehicle: saline with Tween-80): 97 % of control

Compound: Nc1cccc2c1C(=O)c1nccnc1C2=O
- T/C (dose: 100.0 mg/kg/injection, schedule: Q01DX001 (ip), vehicle: Klucel + Tween-80): 98 % of control
- T/C (dose: 200.0 mg/kg/injection, schedule: Q01DX001 (ip), vehicle: Klucel + Tween-80): 98 % of control
- T/C (dose: 400.0 mg/kg/injection, schedule: Q01DX001 (ip), vehicle: Klucel + Tween-80): 97 % of control

Compound: COc1nc2c(ccn2C2OC(COC(C)=O)C(OC(C)=O)C(OC(C)=O)C2OC(C)=O)c(=O)[nH]1 (centres undefined)
- T/C (dose: 100.0 mg/kg/injection, schedule: Q01DX001 (ip), vehicle: saline with Tween-80): 104 % of control
- T/C (dose: 200.0 mg/kg/injection, schedule: Q01DX001 (ip), vehicle: saline with Tween-80): 100 % of control
- T/C (dose: 400.0 mg/kg/injection, schedule: Q01DX001 (ip), vehicle: saline with Tween-80): 100 % of control

Compound: COc1ccc(CCNS(=O)(=O)c2c(C)c(C)c(C)c(C)c2C)cc1OC
- T/C [5]: 93 % of control
- T/C [6]: 88 % of control

Compound: COC(=O)C1=C(C(=O)OC)C2OC1c1cc3ccccc3cc12
- T/C (dose: 7.5 mg/kg/injection, schedule: Q01DX005 (ip), vehicle: saline with Tween-80): 113 % of control
- T/C (dose: 15.0 mg/kg/injection, schedule: Q01DX005 (ip), vehicle: saline with Tween-80): 113 % of control
- T/C (dose: 30.0 mg/kg/injection, schedule: Q01DX005 (ip), vehicle: saline with Tween-80): 108 % of control
- T/C [2]: 97 % of control

Reference: PubChem BioAssay AID330 (DTP/NCI, 2004)
